Tests used:
[1] = target: β1 (caspase-like) sites of the proteasome (Homo sapiens, UniProt P28072); details: relative to β5/β5i sites; cited from earlier work
[2] = target: β2 sites of the proteasome (Homo sapiens, UniProt Q99436); details: under normal conditions; cited from earlier work
[3] = test system: β5/β5i sites (chymotrypsin-like sites) of the proteasome; details: cited from earlier work
[4] = test system: genes associated with proteasome activity; test: Gene expression in Tempol-fed mice, chip-based microarray (summary in text); format: in vivo; details: Tempol 5 mg/g of food from 14 to 31 months; cardiac tissue; vs mice on same food without Tempol
Experimental: (§1) To assess the effects of Tempol on gene expression, Tempol was administered to experimental mice at a dose of 5 mg/g of food from 14 months to 31 months after birth. Mice receiving the same food without the addition of Tempol were used as a negative control. At the age of 31 months, the experimental animals were sacrificed and the hearts were surgically removed. The expression of a broad spectrum of genes in the cardiac tissue was assessed using chip-based microarray technology. Such chips are well known in the art and are widely used to assess gene expression.

Psmd12 = test: Gene expression in Tempol-fed mice, chip-based microarray; format: in vivo; details: white adipose tissue per table title (cardiac tissue per text)
Experimental: as §1

Psme4 = test: as above; format: in vivo; details: white adipose tissue per table title (cardiac tissue per text)
Experimental: as §1

Psmd14 = test: as above; format: in vivo; details: white adipose tissue per table title (cardiac tissue per text)
Experimental: as §1

Psma7 = test: as above; format: in vivo; details: white adipose tissue per table title (cardiac tissue per text)
Experimental: as §1

Psmb5 = test: as above; format: in vivo; details: white adipose tissue per table title (cardiac tissue per text)
Experimental: as §1

Psmd3 = test: as above; format: in vivo; details: white adipose tissue per table title (cardiac tissue per text)
Experimental: as §1

Psmc3 = test: as above; format: in vivo; details: white adipose tissue per table title (cardiac tissue per text)
Experimental: as §1

Psma6 = test: as above; format: in vivo; details: white adipose tissue per table title (cardiac tissue per text)
Experimental: as §1

Psma2 = test: as above; format: in vivo; details: white adipose tissue per table title (cardiac tissue per text)
Experimental: as §1

Psmb4 = test: as above; format: in vivo; details: white adipose tissue per table title (cardiac tissue per text)
Experimental: as §1

Psmd13 = test: as above; format: in vivo; details: white adipose tissue per table title (cardiac tissue per text)
Experimental: as §1

Psmd4 = test: as above; format: in vivo; details: white adipose tissue per table title (cardiac tissue per text)
Experimental: as §1

Psmd9 = test: as above; format: in vivo; details: white adipose tissue per table title (cardiac tissue per text)
Experimental: as §1

Psmc4 = test: as above; format: in vivo; details: white adipose tissue per table title (cardiac tissue per text)
Experimental: as §1

Psmc2 = test: as above; format: in vivo; details: white adipose tissue per table title (cardiac tissue per text)
Experimental: as §1

Psmc6 = test: as above; format: in vivo; details: white adipose tissue per table title (cardiac tissue per text)
Experimental: as §1

[5] = Tempol 5 mg/g of food from 14 to 31 months, microarray
[6] = Tempol-treated vs control mice, 5 mg/g of food from 14 to 31 months

CC(C)C[C@H](NC(=O)[C@H](Cc1ccccc1)NC(=O)c1cnccn1)B(O)O [bortezomib]
Affinity for β1 sites, lower than for β5/β5i sites [1]: approximately 10 fold | Targeting of β2 sites [2]: not appreciably targeted | Inhibition of β5/β5i sites [3]: high potency

CC1(C)CC(O)CC(C)(C)N1[O] [Tempol, 4-hydroxy-2,2,6,6-tetramethylpiperidine-1-oxyl]
Change in expression of the 16 listed proteasome genes [4]: statistically significant decrease in expression | Psmd12 expression, Tempol-treated mice (Psmd12; [5]): 1098 | Psmd12 fold change (Psmd12; [6]): −1.20 | Psme4 expression, Tempol-treated mice (Psme4; [5]): 1086 | Psme4 fold change (Psme4; [6]): −1.16 | Psmd14 expression, Tempol-treated mice (Psmd14; [5]): 2745 | Psmd14 fold change (Psmd14; [6]): −1.20 | Psma7 expression, Tempol-treated mice (Psma7; [5]): 1513 | Psma7 fold change (Psma7; [6]): −1.23 | Psmb5 expression, Tempol-treated mice (Psmb5; [5]): 1754 | Psmb5 fold change (Psmb5; [6]): −1.15 | Psmd3 expression, Tempol-treated mice (Psmd3; [5]): 1017 | Psmd3 fold change (Psmd3; [6]): −1.12 | Psmc3 expression, Tempol-treated mice (Psmc3; [5]): 1810 | Psmc3 fold change (Psmc3; [6]): −1.23 | Psma6 expression, Tempol-treated mice (Psma6; [5]): 3467 | Psma6 fold change (Psma6; [6]): −1.09 | Psma2 expression, Tempol-treated mice (Psma2; [5]): 3123 | Psma2 fold change (Psma2; [6]): −1.20 | Psmb4 expression, Tempol-treated mice (Psmb4; [5]): 3614 | Psmb4 fold change (Psmb4; [6]): −1.15 | Psmd13 expression, Tempol-treated mice (Psmd13; [5]): 1047 | Psmd13 fold change (Psmd13; [6]): −1.23 | Psmd4 expression, Tempol-treated mice (Psmd4; [5]): 2610 | Psmd4 fold change (Psmd4; [6]): −1.20 | Psmd9 expression, Tempol-treated mice (Psmd9; [5]): 310 | Psmd9 fold change (Psmd9; [6]): −1.18 | Psmc4 expression, Tempol-treated mice (Psmc4; [5]): 1101 | Psmc4 fold change (Psmc4; [6]): −1.52 | Psmc2 expression, Tempol-treated mice (Psmc2; [5]): 2176 | Psmc2 fold change (Psmc2; [6]): −1.23 | Psmc6 expression, Tempol-treated mice (Psmc6; [5]): 1449 | Psmc6 fold change (Psmc6; [6]): −1.16
